Values of other authors as cited in patent publication US20250120404A1, “BOTANICAL PESTICIDE COMPOSITIONS” (Mosquito Squad Franchising SPE LLC, priority 2023, published 2025).

System: mosquitoes
Details: average reported toxicity from literature, concentration/biomass
For CCC(=O)OCCc1ccccc1 [2-phenethyl proprionate], the “Concentration of Oil Extract Necessary for Mosquito Death” value (“Concentration of Oil Extract Necessary” below) is listed as “Varying levels”. For C=CCc1ccc(O)c(OC)c1 [Eugenol], the “Concentration of Oil Extract Necessary” value is given as “Varying levels”. In the case of CC(C)=CCC/C(C)=C/CO [Geraniol], the “Concentration of Oil Extract Necessary” value is given as “Varying levels”.
